From US9133148B2, “Carbamate compounds and of making and using same” (Abide Therapeutics, Inc., priority 2012, dated 2015)

Columns and labels:
Type in all cases: biochemical
MAGL [1] = target: T1, MAGL (Mus musculus (Mouse), UniProt O35678); assay: Competitive ABPP, % inhibition at 1 uM, MAGL
Method: (§1) In Vitro Competitive Activity-Based Protein Profiling.
(§2) Proteomes (mouse brain membrane fraction or cell lysates) ([…], 1.0 mg/mL total protein concentration) were preincubated with varying concentrations of inhibitors at 37° C. After 30 min, FP-Rh (1.0 μL, 50 μM in DMSO) was added and the mixture was incubated for another 30 min at 37° C. Reactions were quenched with SDS loading buffer (50 μL—4×) and run on SDS-PAGE.

ABHD6 [2] = target: T2, ABHD6 (Mus musculus (Mouse), UniProt Q8R2Y0); assay: Competitive ABPP, % inhibition at 1 uM, ABHD6
Method: as §1, §2

FAAH [3] = target: T3, FAAH (Mus musculus (Mouse), UniProt O08914); assay: Competitive ABPP, % inhibition at 1 uM, FAAH
Method: as §1
as §2, with “SDS-PAGE. Following gel imaging, serine hydrolase activity was determined by measuring fluorescent intensity of gel bands corresponding to MAGL, ABHD6 and FAAH using ImageJ 1.43u software.” for “SDS-PAGE.”

ABHD6 [4] = target: T2, ABHD6; assay: In vitro competitive activity-based protein profiling (FP-Rh), mouse ABHD6; conditions: mouse brain membrane proteome
Method: as §1, §2

MAGL [5] = target: T1, MAGL; assay: In vitro competitive activity-based protein profiling (FP-Rh), mouse MAGL; conditions: mouse brain membrane proteome
Method: as §1, §2

FAAH [6] = target: T3, FAAH; assay: In vitro competitive activity-based protein profiling (FP-Rh), mouse FAAH; conditions: mouse brain membrane proteome
Method: as §1, §2

T1 sequence (O35678 whole entry): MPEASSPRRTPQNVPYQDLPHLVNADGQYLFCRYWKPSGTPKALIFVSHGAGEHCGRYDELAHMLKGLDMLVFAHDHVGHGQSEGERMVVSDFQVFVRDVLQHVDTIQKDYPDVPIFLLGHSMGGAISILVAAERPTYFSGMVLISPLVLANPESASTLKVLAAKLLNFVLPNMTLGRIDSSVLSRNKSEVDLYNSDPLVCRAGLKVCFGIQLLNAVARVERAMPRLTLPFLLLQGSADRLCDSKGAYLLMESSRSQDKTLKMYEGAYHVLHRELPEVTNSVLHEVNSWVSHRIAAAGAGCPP
T3 sequence (O08914 whole entry): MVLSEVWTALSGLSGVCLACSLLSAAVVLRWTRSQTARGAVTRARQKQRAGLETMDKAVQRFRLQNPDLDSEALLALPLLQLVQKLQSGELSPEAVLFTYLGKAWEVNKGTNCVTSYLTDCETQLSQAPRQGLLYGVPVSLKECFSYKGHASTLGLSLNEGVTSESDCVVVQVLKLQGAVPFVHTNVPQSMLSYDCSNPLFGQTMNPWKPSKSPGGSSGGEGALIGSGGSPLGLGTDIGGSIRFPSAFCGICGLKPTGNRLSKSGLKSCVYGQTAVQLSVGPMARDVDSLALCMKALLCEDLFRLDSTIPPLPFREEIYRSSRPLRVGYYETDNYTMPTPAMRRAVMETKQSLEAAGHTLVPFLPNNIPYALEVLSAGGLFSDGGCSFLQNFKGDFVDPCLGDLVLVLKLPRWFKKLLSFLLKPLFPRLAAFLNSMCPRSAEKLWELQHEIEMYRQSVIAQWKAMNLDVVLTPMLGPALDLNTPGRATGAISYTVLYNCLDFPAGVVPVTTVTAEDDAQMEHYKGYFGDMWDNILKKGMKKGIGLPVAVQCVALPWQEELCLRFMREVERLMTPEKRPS
T2 sequence (Q8R2Y0 whole entry): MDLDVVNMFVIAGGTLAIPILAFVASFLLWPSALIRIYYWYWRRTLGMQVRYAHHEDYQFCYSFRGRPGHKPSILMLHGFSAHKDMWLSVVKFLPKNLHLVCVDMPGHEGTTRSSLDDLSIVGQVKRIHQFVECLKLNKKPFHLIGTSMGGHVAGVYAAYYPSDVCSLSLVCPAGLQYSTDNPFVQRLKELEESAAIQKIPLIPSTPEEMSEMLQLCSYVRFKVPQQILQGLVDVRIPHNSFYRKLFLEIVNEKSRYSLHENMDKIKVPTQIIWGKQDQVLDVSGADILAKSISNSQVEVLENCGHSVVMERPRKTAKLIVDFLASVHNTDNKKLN

Row | SMILES | IC50 (ABHD6 [4]; competitive ABPP (Table 7)) | IC50 (MAGL [5]; competitive ABPP (Table 7)) | IC50 (FAAH [6]; competitive ABPP (Table 7)) | also measured
1 | Cc1cc(-c2ccc(CN3CCN(C(=O)OC(C(F)(F)F)C(F)(F)F)CC3)c(F)c2)cc(C)n1 [Example 11aa, 1,1,1,3,3,3-hexafluoropropan-2-yl 4-[[4-(2,6-dimethylpyridin-4-yl)-2-fluorophenyl]methyl]piperazine-1-carboxylate] |  |  |  | inhibition at 1 µM (MAGL [1]): > 75%; inhibition at 1 µM (ABHD6 [2]): 25 to 75%; inhibition at 1 µM (FAAH [3]): < 25%
2 | O=C(OC(C(F)(F)F)C(F)(F)F)N1CCN(Cc2c(Cl)cccc2N2CCCC2)CC1 [Example 9m, 1,1,1,3,3,3-hexafluoropropan-2-yl 4-[[2-chloro-6-(pyrrolidin-1-yl)phenyl]methyl]piperazine-1-carboxylate] |  |  |  | inhibition at 1 µM (MAGL [1]): 25 to 75%; inhibition at 1 µM (ABHD6 [2]): 25 to 75%; inhibition at 1 µM (FAAH [3]): < 25%
3 | CC(C)(C)OC(=O)N1CCN(C(=O)OC(C(F)(F)F)C(F)(F)F)CC1 [Example 3d, 1-tert-butyl 4-(1,1,1,3,3,3-hexafluoropropan-2-yl)piperazine-1,4-dicarboxylate] |  |  |  | IC50 (ABHD6 [4]; competitive ABPP): > 1000 nM; IC50 (MAGL [5]; competitive ABPP): > 1000 nM; IC50 (FAAH [6]; competitive ABPP): > 10000 nM
4 | O=C(OC(C(F)(F)F)C(F)(F)F)N1CCN(Cc2ccc(-c3ccccc3)cc2F)CC1 [Example 11p, 1,1,1,3,3,3-hexafluoropropan-2-yl 4-[(2-fluoro-4-phenylphenyl)methyl]piperazine-1-carboxylate] | > 1000 nM | < 100 nM | > 10000 nM | 
5 | O=C(OC(C(F)(F)F)C(F)(F)F)N1CCN(Cc2ccc(N3CCCC3)cc2OC(F)(F)F)CC1 [Example 9ap, 1,1,1,3,3,3-hexafluoropropan-2-yl 4-(4-(pyrrolidin-1-yl)-2-(trifluoromethoxy)benzyl)piperazine-1-carboxylate] | > 1000 nM | 100 to 1000 nM | > 10000 nM | 
6 | CC(C)c1cc(N2CCCC2)ccc1CN1CCN(C(=O)OC(C(F)(F)F)C(F)(F)F)CC1 [Example 9au, 1,1,1,3,3,3-hexafluoropropan-2-yl 4-(2-isopropyl-4-(pyrrolidin-1-yl)benzyl)piperazine-1-carboxylate] | > 1000 nM | > 1000 nM | > 10000 nM | 
7 | Cn1ncc2cc(C(c3ccc4c(cnn4C)c3)N3CCN(C(=O)OC(C(F)(F)F)C(F)(F)F)CC3)ccc21 [Example 2k, 1,1,1,3,3,3-hexafluoropropan-2-yl 4-(bis(1-methyl-1H-indazol-5-yl)methyl)piperazine-1-carboxylate] |  |  |  | inhibition at 1 µM (FAAH [3]): < 25%
8 | O=C(OC(C(F)(F)F)C(F)(F)F)N1CCN(Cc2ccc(Br)cc2Oc2ccccc2)CC1 [Example 9b, 1,1,1,3,3,3-hexafluoropropan-2-yl 4-(4-bromo-2-phenoxybenzyl)piperazine-1-carboxylate] |  |  |  | IC50 (ABHD6 [4]; competitive ABPP): 100 to 1000 nM; IC50 (MAGL [5]; competitive ABPP): < 100 nM; IC50 (FAAH [6]; competitive ABPP): > 10000 nM
9 | O=C(OC(C(F)(F)F)C(F)(F)F)N1CCN(Cc2ccc(Cl)cc2)CC1 [Example 9o, 1,1,1,3,3,3-hexafluoropropan-2-yl 4-(4-chlorobenzyl)piperazine-1-carboxylate] |  |  |  | inhibition at 1 µM (FAAH [3]): < 25%
10 | O=C(OC(C(F)(F)F)C(F)(F)F)N1CCN(Cc2ccc(Cl)cc2-n2cccn2)CC1 [Example 9ae, 1,1,1,3,3,3-hexafluoropropan-2-yl 4-(4-chloro-2-(1H-pyrazol-1-yl)benzyl)piperazine-1-carboxylate] | 100 to 1000 nM | 100 to 1000 nM | > 10000 nM | 
11 | O=C(OC(C(F)(F)F)C(F)(F)F)N1CCN(Cc2cccc(Cl)c2C(=O)N2CCCC2)CC1 [Example 9bg, 1,1,1,3,3,3-hexafluoropropan-2-yl 4-(3-chloro-2-(pyrrolidine-1-carbonyl)benzyl)piperazine-1-carboxylate] | > 1000 nM | 100 to 1000 nM | > 10000 nM | 
12 | COc1ccc(CN2CCN(C(=O)OC(C(F)(F)F)C(F)(F)F)CC2)cc1 [Example 9v, 1,1,1,3,3,3-hexafluoropropan-2-yl 4-(4-methoxybenzyl)piperazine-1-carboxylate] | 100 to 1000 nM | < 100 nM | > 6250 nM | 
13 | O=C(OC(C(F)(F)F)C(F)(F)F)N1CCN(Cc2c(Cl)cccc2N2CCOCC2)CC1 [Example 9ac, 1,1,1,3,3,3-hexafluoropropan-2-yl 4-[[2-chloro-6-(morpholin-4-yl)phenyl]methyl]piperazine-1-carboxylate] |  |  |  | inhibition at 1 µM (FAAH [3]): < 25%
14 | O=C(OC(C(F)(F)F)C(F)(F)F)N1CCN(Cc2cccc(N3CCOCC3)c2)CC1 [Example 9ah, 1,1,1,3,3,3-hexafluoropropan-2-yl 4-(3-morpholinobenzyl)piperazine-1-carboxylate] | < 100 nM | < 100 nM | > 10000 nM | 
15 | Cc1ccc(CN2CCN(C(=O)OC(C(F)(F)F)C(F)(F)F)CC2)cc1 [Example 9w, 1,1,1,3,3,3-hexafluoropropan-2-yl 4-(4-methylbenzyl)piperazine-1-carboxylate] | > 1000 nM | < 100 nM | > 1250 nM | 
16 | O=C(O)C(OC(=O)N1CCN(C(c2ccc(Cl)cc2)c2ccc(Cl)cc2)CC1)C(F)(F)F (stereo not drawn) [Example 6i, 2-((4-(bis(4-chlorophenyl)methyl)piperazine-1-carbonyl)oxy)-3,3,3-trifluoropropanoic acid] |  |  |  | IC50 (ABHD6 [4]; competitive ABPP): > 1000 nM; IC50 (MAGL [5]; competitive ABPP): > 1000 nM; IC50 (FAAH [6]; competitive ABPP): > 10000 nM
17 | O=C(OC(C(F)(F)F)C(F)(F)F)N1CCN(Cc2ccc(N3CCOCC3)cc2)CC1 [Example 9f, 1,1,1,3,3,3-hexafluoropropan-2-yl 4-(4-morpholinobenzyl)piperazine-1-carboxylate] | 100 to 1000 nM | 100 to 1000 nM | > 10000 nM | 
18 | O=C(OC(C(F)(F)F)C(F)(F)F)N1CCN(Cc2ccc(N3CCCC3)cc2Cl)CC1 [Example 9ab, 1,1,1,3,3,3-hexafluoropropan-2-yl 4-[[2-chloro-4-(pyrrolidin-1-yl)phenyl]methyl]piperazine-1-carboxylate] | > 1000 nM | 100 to 1000 nM | > 10000 nM | 
19 | O=C(OC(C(F)(F)F)C(F)(F)F)N1CCN(Cc2ccc(N3CCOCC3)cc2Cl)CC1 [Example 9e, 1,1,1,3,3,3-hexafluoropropan-2-yl 4-(2-chloro-4-morpholinobenzyl)piperazine-1-carboxylate] | 100 to 1000 nM | 100 to 1000 nM | > 5000 nM | 
20 | Cc1cc(-c2ccccc2)ccc1CN1CCN(C(=O)OC(C(F)(F)F)C(F)(F)F)CC1 [Example 11q, 1,1,1,3,3,3-hexafluoropropan-2-yl 4-[(2-methyl-4-phenylphenyl)methyl]piperazine-1-carboxylate] | > 1000 nM | 100 to 1000 nM | > 10000 nM | 
21 | CC(=O)N[C@@H]1CCN(c2cc(Cl)ccc2CN2CCN(C(=O)OC(C(F)(F)F)C(F)(F)F)CC2)C1 [Example 9ba, (R)-1,1,1,3,3,3-hexafluoropropan-2-yl 4-(2-(3-acetamidopyrrolidin-1-yl)-4-chlorobenzyl)piperazine-1-carboxylate] | > 1000 nM | < 100 nM | > 10000 nM | 
22 | COC(=O)C(OC(=O)N(C)CCc1ccccc1)C(F)(F)F (stereo not drawn) [Example 7k, Methyl 3,3,3-trifluoro-2-((methyl(phenethyl)carbamoyl)oxy)propanoate] |  |  |  | IC50 (ABHD6 [4]; competitive ABPP): > 1000 nM; IC50 (MAGL [5]; competitive ABPP): > 1000 nM; IC50 (FAAH [6]; competitive ABPP): > 10000 nM
23 | O=C(OC(C(F)(F)F)C(F)(F)F)N1CCN(C(c2ccc(-c3ccccc3)cc2)c2ccc3c(c2)OCO3)CC1 (stereo not drawn) [Example 2g] |  |  |  | IC50 (ABHD6 [4]; competitive ABPP): > 1000 nM; IC50 (MAGL [5]; competitive ABPP): > 1000 nM; IC50 (FAAH [6]; competitive ABPP): > 10000 nM
24 | CC(=O)N[C@H]1CCN(c2cc(Cl)ccc2CN2CCN(C(=O)OC(C(F)(F)F)C(F)(F)F)CC2)C1 [Example 9bb, (S)-1,1,1,3,3,3-hexafluoropropan-2-yl 4-(2-(3-acetamidopyrrolidin-1-yl)-4-chlorobenzyl)piperazine-1-carboxylate] | > 1000 nM | < 100 nM | > 10000 nM | 
25 | O=C(OC(C(F)(F)F)C(F)(F)F)N1CCN(Cc2ccc(Cl)cc2-n2cc(Cl)cn2)CC1 [Example 9ai, 1,1,1,3,3,3-hexafluoropropan-2-yl 4-(4-chloro-2-(4-chloro-1H-pyrazol-1-yl)benzyl)piperazine-1-carboxylate] | 100 to 1000 nM | < 100 nM | > 10000 nM | 
26 | O=C(OC(C(F)(F)F)C(F)(F)F)N1CCN(Cc2cccc(F)c2N2CCCC2)CC1 [Example 9as, 1,1,1,3,3,3-hexafluoropropan-2-yl 4-(3-fluoro-2-(pyrrolidin-1-yl)benzyl)piperazine-1-carboxylate] | > 1000 nM | 100 to 1000 nM | > 10000 nM | 
27 | CC(C)n1cc(CN2CCN(C(=O)OC(C(F)(F)F)C(F)(F)F)CC2)c(-c2ccccc2)n1 [Example 10h, 1,1,1,3,3,3-hexafluoropropan-2-yl 4-[[3-phenyl-1-(propan-2-yl)-1H-pyrazol-4-yl]methyl]piperazine-1-carboxylate] | 100 to 1000 nM | 100 to 1000 nM | > 10000 nM | 
28 | O=C(OC(C(F)(F)F)C(F)(F)F)N1CCN(Cc2ccc(N3CCOCC3)c(Cl)c2)CC1 [Example 9h, 1,1,1,3,3,3-hexafluoropropan-2-yl 4-(3-chloro-4-morpholinobenzyl)piperazine-1-carboxylate] | 100 to 1000 nM | 100 to 1000 nM | > 10000 nM | 
